Experimental data as given in PubChem BioAssay (NCI).
“And” between values parts separate entries of the source, which are not always exact repeats. Equal values may be shown once.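 Exposure lasted 48 hours, with cells grown in 96-well plates and compounds tested at five concentrations. Here, GI50 denotes the concentration required for 50% inhibition of growth. At the TGI there is no net growth.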

Legend:
Assay in all cases: NCI tumour cell line growth inhibition, 48 h
[1] = test system: IGROV1 ovarian
[2] = test system: SK-MEL-2 melanoma
[3] = test system: UACC-257 melanoma
[4] = test system: SK-MEL-28 melanoma
[5] = test system: K-562 leukemia
[6] = test system: HCT-116 colon
[7] = test system: SW-620 colon
[8] = test system: SF-295 CNS
[9] = test system: OVCAR-3 ovarian
[10] = test system: ACHN renal

O=C(O)c1ccccc1NCn1nc(-c2ccccc2O)oc1=S
GI50 [1]: > 100 µM | TGI [1]: > 100 µM | GI50 [2]: > 100 µM | TGI [2]: > 100 µM | GI50 [3]: > 100 µM | TGI [3]: > 100 µM | GI50 [4]: > 100 µM | TGI [4]: > 100 µM | GI50 [5]: 70.9 µM | TGI [5]: > 100 µM | GI50 [6]: 26 µM | TGI [6]: 54.1 µM | GI50 [7]: 33.8 µM | TGI [7]: > 100 µM | GI50 [8]: > 100 µM | TGI [8]: > 100 µM | GI50 [9]: > 100 µM | TGI [9]: > 100 µM | GI50 [10]: 26.9 µM | TGI [10]: 82.8 µM

O=C(Nc1ccc(-n2cc(-c3ccncc3)c(-c3ccc(Cl)c(O)c3)n2)cc1)c1cc(C(F)(F)F)cc(C(F)(F)F)c1
GI50 [1]: 11.5 µM | TGI [1]: 34.5 µM | GI50 [2]: 6.61 µM | TGI [2]: 31.7 µM | GI50 [3]: 8.95 µM | TGI [3]: > 100 µM | GI50 [4]: 4.88 µM | TGI [4]: 20 µM | GI50 [5]: 4.97 µM | TGI [5]: 88 µM | GI50 [6]: 4.72 µM | TGI [6]: 17.5 µM | GI50 [7]: 5.4 µM | TGI [7]: 35.6 µM | GI50 [8]: 3.31 µM | TGI [8]: 18.1 µM | GI50 [9]: 3.44 µM | TGI [9]: 12.2 µM | GI50 [10]: 6.47 µM | TGI [10]: 31.1 µM

Cn1cc(-c2ccc3ncc(-c4ccc(CC(=O)Nc5cc(C(C)(C)C)nn5C)cc4)cc3c2)cn1
GI50 [1]: 0.568 µM | TGI [1]: > 20 µM | GI50 [2]: 0.789 µM | TGI [2]: 7.14 µM | GI50 [3]: 1.45 µM | TGI [3]: > 20 µM | GI50 [4]: 3.57 µM | TGI [4]: > 20 µM | GI50 [5]: 1.13 µM | TGI [5]: > 20 µM | GI50 [6]: 0.887 µM | TGI [6]: > 20 µM | GI50 [7]: 1.67 µM | TGI [7]: > 20 µM | GI50 [8]: 1.58 µM | TGI [8]: > 20 µM | GI50 [9]: 1.4 µM | TGI [9]: > 20 µM | GI50 [10]: 0.689 µM | TGI [10]: > 20 µM

O=C1Nc2ccc(-c3cccnc3)cc2/C1=C/c1cc(Br)c(O)c(Br)c1
GI50 [1]: 7.09 µM | TGI [1]: > 25 µM | GI50 [2]: 3.11 µM | TGI [2]: 6.85 µM | GI50 [3]: 4.07 µM | TGI [3]: 9.36 µM | GI50 [4]: 4.89 µM | TGI [4]: 14.6 µM | GI50 [5]: 9.07 µM | TGI [5]: > 25 µM | GI50 [6]: 6.54 µM | TGI [6]: > 25 µM | GI50 [7]: 8.23 µM | TGI [7]: > 25 µM | GI50 [8]: 5.25 µM | TGI [8]: 13.7 µM | GI50 [9]: 5.05 µM | TGI [9]: 12.8 µM | GI50 [10]: 8.15 µM | TGI [10]: > 25 µM

COc1ccccc1/C=C(\NC(=O)c1ccccc1)c1nc2ccc(Cl)cc2[nH]1
TGI [1]: > 100 µM | TGI [2]: 65.7 µM | TGI [3]: > 100 µM | TGI [4]: > 100 µM | TGI [5]: > 100 µM | TGI [6]: > 100 µM | TGI [7]: > 100 µM | TGI [9]: 49.6 µM | TGI [10]: 67.8 µM

O=C(O)c1ccccc1C(=O)c1ccco1
TGI [1]: > 100 µM | TGI [2]: > 100 µM | TGI [3]: > 100 µM | TGI [4]: > 100 µM | TGI [5]: > 100 µM | TGI [6]: > 100 µM | TGI [7]: > 100 µM | TGI [8]: > 100 µM | TGI [9]: > 100 µM | TGI [10]: > 100 µM

CCOC1c2nc3ccccc3nc2-c2ccccc2N1C(C)=O (centres undefined)
TGI [1]: > 100 µM | TGI [2]: > 100 µM | TGI [3]: > 100 µM | TGI [4]: > 100 µM | TGI [5]: > 100 µM | TGI [6]: > 100 µM | TGI [7]: > 100 µM | TGI [8]: > 100 µM | TGI [9]: > 100 µM | TGI [10]: > 100 µM

Cc1cc(OC2OC(CO)C(O)C(O)C2O)ccc1O (centres undefined)
TGI [1]: > 100 µM | TGI [2]: > 100 µM | TGI [3]: > 100 µM | TGI [4]: > 100 µM | TGI [5]: > 100 µM | TGI [6]: > 100 µM | TGI [7]: > 100 µM | TGI [8]: > 100 µM | TGI [9]: > 100 µM | TGI [10]: > 100 µM

O=c1c2ccccc2nc(-c2cccc(Cl)c2)n1NC1OC(CO)C(O)C(O)C1O (centres undefined)
TGI [1]: > 100 µM | TGI [2]: > 100 µM | TGI [3]: > 100 µM | TGI [4]: > 100 µM | TGI [5]: > 100 µM | TGI [6]: > 100 µM | TGI [7]: > 100 µM | TGI [8]: > 100 µM | TGI [9]: > 100 µM | TGI [10]: > 100 µM

OCCNc1nc2ccccc2c2[nH]c3ccccc3c12
GI50 [1]: 0.397 µM | TGI [1]: 6.1 µM | GI50 [2]: 0.907 µM | TGI [2]: 3.29 µM | GI50 [3]: 0.944 µM | TGI [3]: 2.33 µM | GI50 [4]: 1.04 µM | TGI [4]: 2.55 µM | GI50 [5]: 0.44 µM | TGI [5]: > 26.3 µM | GI50 [6]: 0.278 µM | TGI [6]: 1.68 µM | GI50 [7]: 0.325 µM | TGI [7]: 2.26 µM | GI50 [8]: 0.314 µM | TGI [8]: 2.42 µM | GI50 [9]: 0.516 µM | TGI [9]: 3.47 µM | GI50 [10]: 0.278 µM | TGI [10]: 2.67 µM

CCOC(=O)C1=C(C)N(NC(N)=O)C2(N)N(NC(N)=O)C(C)=C(C(=O)OCC)C12C#N (centres undefined)
TGI [1]: > 100 µM | TGI [2]: > 100 µM | TGI [3]: > 100 µM | TGI [4]: > 100 µM | TGI [5]: > 100 µM | TGI [6]: > 100 µM | TGI [7]: > 100 µM | TGI [8]: > 100 µM | TGI [9]: > 100 µM | TGI [10]: > 100 µM

CCN1C(=O)N(CC)C2C1NC(=S)N2/N=C/C=C/c1ccccc1 (centres undefined)
GI50 [1]: 0.142 µM | TGI [1]: > 100 µM | GI50 [2]: 0.661 µM | TGI [2]: > 100 µM | GI50 [3]: > 100 µM | TGI [3]: > 100 µM | GI50 [4]: 1.91 µM | TGI [4]: > 100 µM | GI50 [5]: 0.0495 µM | TGI [5]: > 100 µM | GI50 [6]: 0.106 µM | TGI [6]: > 100 µM | GI50 [7]: 0.0726 µM | TGI [7]: > 100 µM | GI50 [8]: 0.0666 µM | TGI [8]: > 100 µM | GI50 [9]: 0.0425 µM | TGI [9]: > 100 µM | GI50 [10]: 0.098 µM | TGI [10]: > 100 µM

O=[N+]([O-])c1cccnc1S(=O)(=O)c1ccccc1
TGI [1]: 20.3 µM | TGI [2]: 31.1 µM | TGI [3]: 33.4 µM | TGI [4]: 34.6 µM | TGI [5]: > 43.8 µM | TGI [6]: 21.6 µM | TGI [7]: 8.38 µM | TGI [8]: 32.5 µM | TGI [9]: 3.84 µM | TGI [10]: 11.4 µM

N#CN1CC[C@H](C(=O)Nc2ncc(-c3ccccc3)s2)C1
GI50 [1]: 0.449 µM | TGI [1]: 5.59 µM | GI50 [2]: 0.274 µM | TGI [2]: 0.726 µM | GI50 [3]: 1.52 µM | TGI [3]: 3.73 µM | GI50 [4]: 1.09 µM | TGI [4]: 3.01 µM | GI50 [5]: 0.455 µM | TGI [5]: 11 µM | GI50 [6]: 0.323 µM | TGI [6]: 2.18 µM | GI50 [7]: 0.313 µM | TGI [7]: 14.4 µM | GI50 [8]: 1.22 µM | TGI [8]: 6.44 µM | GI50 [9]: 0.346 µM | TGI [9]: 1.44 µM | GI50 [10]: 0.562 µM | TGI [10]: 2.49 µM

CC[n+]1c(-c2ccccc2)c2cc(N)ccc2c2ccc(N)cc21
GI50 [1]: 0.522 µM | TGI [1]: 10.2 µM and 12.9 µM | GI50 [2]: 1.11 µM | TGI [2]: 3.8 µM and 6.55 µM | GI50 [3]: 1.22 µM | TGI [3]: 4.8 µM and 10 µM and 6.4 µM | GI50 [4]: 0.607 µM | TGI [4]: 2.12 µM and 8.02 µM | GI50 [5]: 1.75 µM | TGI [5]: 30.1 µM and 50.5 µM and 35.3 µM | GI50 [6]: 1.71 µM | TGI [6]: 12.7 µM and 25.3 µM and 26.6 µM | GI50 [7]: 1.05 µM | TGI [7]: 16.2 µM and 33.3 µM and 22.2 µM | GI50 [8]: 1.51 µM | TGI [8]: 13.7 µM and 15.5 µM and 29 µM | GI50 [9]: 1.61 µM | TGI [9]: 9.84 µM and 20.4 µM and 15 µM | GI50 [10]: 14.1 µM | TGI [10]: > 100 µM
